Laboratory results reported in patent US20180243421A1, “IMMUNOSTIMULATING AGENT” (AJINOMOTO CO., INC., priority 2015, published 2018).

Tested on: anti-influenza IgA antibody
Test: Transnasal influenza vaccine adjuvant activity: anti-influenza IgA antibody in nasal cavity wash
Format: in vivo, BALB/c mice
Details: Example 4, influenza HA vaccine 20 μl, SZ62 1 μg, Poly(I:C) 5 μg, two weeks from secondary immunization

| Molecule | anti-influenza IgA antibody production in nasal cavity wash as compared to the influenza vaccine single administration group |
| --- | --- |
| polyinosinic polycytidylic acid [Poly(I:C), reference compound] | a significant increase was not found |

Tested on: anti-OVA-specific IgG1 subclass antibody
Test: Adjuvant activity after primary immunization: anti-OVA-specific IgG1 subclass antibody in serum (Examples 13-18)
Format: in vivo, BALB/c mice
Details: Example 17; OVA 5 μg + 0.256 μmol in 5% αCD saline s.c.; serum after 12 days
Experimental: 8-Week-old female BALB/c mice were divided into groups (N=6), and each group was primarily immunized by dorsal-subcutaneous administration of (1) ovalbumin (OVA) (5 μg) dissolved in saline as an antigen (OVA single administration group), (2) OVA (5 μg) and SZ83 (0.256 μmol) dissolved or dispersed in 5% αCD-added saline (SZ83 administration group), (3) OVA (5 μg) and SZ84 (0.256 μmol) dissolved or dispersed in 5% αCD-added saline (SZ84 administration group), (4) OVA (5 μg) and SZ86 (0.256 μmol) dissolved or dispersed in 5% αCD-added saline (SZ86 administration group), (5) OVA (5 μg) and SZ89 (0.256 μmol) dissolved or dispersed in 5% αCD-added saline (SZ89 administration group), (6) OVA (5 μg) and SZ90 (0.256 μmol) dissolved or dispersed in 5% αCD-added saline (SZ90 administration group), each per mouse. After 12 days, blood samples were collected under anesthesia, and the obtained serum samples were subjected to the measurement of an anti-OVA-specific IgG1 subclass antibody.
Measurement Method of Concentration of anti-OVA-specific IgG1 Subclass Antibody and anti-OVA-specific IgG2a Subclass Antibody
To a 96 well plate was added 5 μg/ml OVA at 100 μl/well, and the mixture was incubated at 4° C. overnight. After incubation, the mixture was washed three times with 200 μl of PBS-T (PBS+0.05% (v/v) Tween 20) per well, and blocked with 100 μl of 5% FCS/PBS solution per well at room temperature for 1 to for 2 hr. Thereafter, the mixture was washed three times with PBS-T (200 μl/well), a diluted serum sample (100 μl/well) or the same amount of 5% FCS/PBS solution as a control was added, to and the mixture was incubated at 37° C. for 1 hr. To calculate concentration of the antibody, the standard of an anti-OVA-specific IgG1 subclass antibody diluted with 2% FCS/PBS solution was added at 100 ng/ml, 50 ng/ml, 25 ng/ml, 12.5 ng/ml, 6.25 ng/ml, 3.125 ng/ml, 1.56 ng/ml, 0.781 ng/ml, 0.391 ng/ml, 0.195 ng/ml, 0.098 ng/ml, 0 ng/ml, per 1 well. When an anti-OVA-specific IgG2a subclass antibody was measured, the standard of an anti-OVA-specific IgG2a subclass antibody was added at 50 ng/ml, 25 ng/ml, 12,5 ng/ml, 6.25 ng/ml, 3.125 ng/ml, 1.56 ng/ml, 0.781 ng/ml, 0.391 ng/ml, 0.195 ng/ml, 0.098 ng/ml, 0.049 ng/ml, 0 ng/ml, per 1 well. […] Thereafter, the mixture was washed five times with PBS-T (200 μl/well), a diluted anti-biotin-HRP antibody was added (100 μl/well), and the mixture was incubated at 37° C. for another 30 min. Thereafter, the mixture was washed five times with PBS-T (200 μl/well), TMB substrate solution was added (100 μl/well), and the mixture was incubated at room temperature for 10- for 15 min. Thereafter, a reaction quenching liquid (2N sulfuric acid solution) was added (50 μl/well) to discontinue a color developing reaction, and the absorbance (OD Value=450 nm) was measured by a microplate reader. A standard curve was drawn from the measured OD values, and the concentration was calculated.
8-Week-old female BALB/c mice were divided into groups (N=6), and each group was primarily immunized by dorsal-subcutaneous administration of (1) ovalbumin (OVA) (5 μg) dissolved in saline as an antigen (OVA single administration group), (2) OVA (5 μg) and SZ92 (0.256 μmol) dissolved or dispersed in 5% αCD-added saline (SZ92 administration group), (3) OVA (5 μg) and SZ94 (0.256 μmol) dissolved or dispersed in 5% αCD-added saline (SZ94 administration group), (4) OVA (5 μg) and SZ95 (0.256 μmol) dissolved or dispersed in 5% αCD-added saline (SZ95 administration group), (5) OVA (5 μg) and SZ96 (0.256 μmol) dissolved or dispersed in 5% αCD-added saline (SZ96 administration group), each per mouse. After 12 days, blood samples were collected under anesthesia, and the obtained serum samples were subjected to the measurement of anti-OVA-specific IgG1 subclass antibody.

| Molecule | anti-OVA-specific IgG1 subclass antibody production after primary immunization as compared to the OVA single administration group |
| --- | --- |
| CCCCCCCCCCCCCCCCCCCCCC(=O)N[C@@H](CCCNC(=N)N)C(=O)OCCCCCC.Cl [SZ121, N^2-docosanoyl-L-arginine hexyl ester hydrochloride salt] | significantly increased |
| CCCCCCCCCCCCCCCCCCCCCC(=O)N[C@@H](CC(C)C)C(=O)OCCCCCC [SZ124, N-docosanoyl-L-leucine hexyl ester] | tended to increase |
| CCCCCCCCCCCCCCCCCCCCCC(=O)N[C@@H](CC(C)C)C(=O)N(CC)CC [SZ125, N^2-docosanoyl-N^1,N^1-diethyl-L-leucinamide] | tended to increase |

Same assay, conditions: Example 18; OVA 5 μg + 0.256 μmol in 5% αCD saline s.c.; serum after 12 days

| Molecule | anti-OVA-specific IgG1 subclass antibody production after primary immunization as compared to the OVA single administration group |
| --- | --- |
| CCCCCCCCCCCCCCCCCCCCCC(=O)N[C@@H](CCCNC(=N)N)C(N)=O.Cl [SZ128, N^2-docosanoyl-L-arginine amide hydrochloride salt] | significantly increased |
| CCCCCCCCCCCCCCCCCCCCCC(=O)N[C@@H](CCCNC(=N)N)C(=O)N(CC)CC.Cl [SZ129, N^2-docosanoyl-N^1,N^1-diethyl-L-arginine amide hydrochloride salt] | significantly increased |
| CCCCCCOC(=O)[C@H](CCCNC(=N)N)NC(=O)CCCCC.Cl [SZ130, N^2-hexanoyl-L-arginine hexyl ester hydrochloride salt] | tended to increase |
| CCCCCCCCCCCCCCCC(=O)N[C@@H](CCC(=O)O)C(=O)OCCCCCC [SZ134, N-hexadecanoyl-L-glutamic acid hexyl ester] | tended to increase |
| CCCCCCCCCCCCCCCCCCCCCC(=O)N[C@@H](CCC(=O)O)C(=O)OCCCCCC [SZ135, N-docosanoyl-L-glutamic acid hexyl ester] | tended to increase |
